How the values were obtained:
[1] = test system: lean skeletal muscle mass; details: peroral, humans, clinical study by the inventor
IGF-1 response = details: certain cell studies; cited from earlier work
[2] = test system: adrenocorticotropin (ACTH) and cortisol response; details: intravenous infusion; cited from earlier work
[3] = test system: intestinal transport of certain nutrients; details: cited from earlier work

Substance	increasing lean skeletal muscle mass [1]	further results
phosphatidylcholine arachidonic acid	effective	
Phosphatidylcholine		IGF-1 response (IGF-1 response): exert an IGF-1 response
Phosphatidylserine		adrenocorticotropin (ACTH) and cortisol response to stressful exercise [2]: significantly suppresses
Lysophosphatidylcholine		intestinal transport of certain nutrients [3]: increases
lysophosphatidylcholine arachidonic acid	effective	
phosphatidylserine arachidonic acid	effective	

Source: patent US7199112B2, “Use of phospholipid arachidonic acids for increasing muscle mass in humans” (priority 2005, dated 2007)
